Assay results from patent US8648076B2, “Cysteine protease inhibitors and their therapeutic applications” (Hybrigenics SA, priority 2005, dated 2014).

The compounds below were run against Cathepsin B (Homo sapiens, UniProt P07858) (assay: Cathepsin B activity assay). Conditions: 36 μM z-RR-AMC, 3.6 nM enzyme, 30 min pre-incubation at 25° C., 60 min at 37° C.; sigmoidal fit; AF: Autofluorescent; read-out: cathepB (inhibition of cysteine protease activity).
Type: biochemical
Description: Cathepsin B was diluted in Cathepsin B buffer (20 mM Tris HCl pH 6.8; 1 mM EDTA; 1 mM DTT). Compounds stocks (100 mM) were stored at −20° C. in DMSO. […] Reactions were performed as duplicates in Black LJL 96 well plates (HE microplates; Molecular Devices; 20 μl final reaction volume). The substrate concentration for cathepsin B specificity assay was 36 μM (z-RR-AMC; Calbiochem). The concentration of the enzyme (Cathepsin B) in specificity assays was 3.6 nM. The concentrations were determined in order to perform specificity assays under initial velocities at fixed substrate concentration. Compounds were pre-incubated with enzymes for 30 minutes at 25° C. Reactions were initiated by addition of substrate to the plates containing the enzymes (+/− compounds) diluted in assay buffer. Reactions were incubated for 60 minutes at 37° C. Reactions were stopped by adding acetic acid (100 mM final). Readings were performed on a Pherastar Fluorescent Reader (BMG). δ Emission 380 nm; 6 Excitation=460 nm. Data (mean values+/− standard deviation) were analyzed as % of control (no compound) and plotted as percentage versus the Log of the compound concentration using GraphPad (Prism). Data were fitted to a sigmoidal model (variable slope).

`N#Cc1nc2c(nc1C#N)-c1ccccc1C2=NOCc1ccccc1` (mixture of isomers) [Example 13C, 9-Benzyloxyimino-9H-indeno[1,2-b]pyrazine-2,3-dicarbonitrile] and `N#Cc1nc2c(nc1C#N)-c1ccccc1/C2=N/Oc1ccccc1` [Example 13e, 9-Phenoxyimino-9H-indeno[1,2-b]pyrazine-2,3-dicarbonitrile] cannot be ordered by IC50: > 100 µM for the first, > 100 µM for the second.

`C=CCON=C1c2ccccc2-c2nc(C#N)c(C#N)nc21` (mixture of isomers) [Example 13b, 9-(Allyloxyimino)-9H-indeno[1,2-b]pyrazine-2,3-dicarbonitrile] and `CCON=C1c2ccccc2-c2nc(C#N)c(C#N)nc21` (mixture of isomers) [Example 13d, 9-Ethoxyimino-9H-indeno[1,2-b]pyrazine-2,3-dicarbonitrile] cannot be ordered by IC50: > 100 µM for the first, > 100 µM for the second.

First: N#Cc1nc2c(nc1C#N)-c1ccccc1C2=Nc1ccccc1 (mixture of isomers) [Example 14, 9-[phenylimino]-9H-indeno[1,2-b]pyrazine-2,3-dicarbonitrile]
Second: N#Cc1nc2c(nc1C#N)-c1ccccc1C2=NOCCOc1ccccc1 [Example 27a, 9-(2-Phenoxy-ethoxyimino)-9H-indeno[1,2-b]pyrazine-2,3-dicarbonitrile]
The IC50 of the first is lower: 74 µM for the first, > 100 µM for the second.

First: CC(=O)O/N=C1\c2ccccc2-c2nc(C(N)=O)c(C#N)nc21 (single isomer, unassigned) [Example 35, 2-cyano-9-acetoxyimino-9H-indeno[1,2-b]pyrazine-3-carboxylic acid amide]
Second: CON=C1c2ccccc2-c2nc(C(N)=O)c(C#N)nc21 [Example 34d, 2-Cyano-9-methoxyimino-9H-indeno[1,2-b]pyrazine-3-carboxylic acid amide]
The IC50 of the first is 10-fold higher: 11.5 µM for the first, 1.11 µM for the second. The second is the more potent here.

Going from `N#Cc1nc2c(nc1C#N)-c1ccccc1C2=O` [Example 1, 9-oxo-9H-indeno[1,2-b]pyrazine-2,3-dicarbonitrile] to `N#Cc1nc2c(nc1C#N)C(=O)c1ccccc1C2=O` [Example 20, 5,10-dioxo-5,10-dihydro-benzo[g]quinoxaline-2,3-dicarbonitrile], the IC50 rises from 12 µM to > 100 µM.

`COc1nc2c(nc1C#N)C(=O)c1ccccc1-2` [Example 3, 3-methoxy-9-oxo-9H-indeno[1,2-b]pyrazine-2-carbonitrile] and `COCCOc1nc2c(nc1C#N)C(=O)c1ccccc1-2` [Example 5, 3-(2-methoxy-ethoxy)-9-oxo-9H-indeno[1,2-b]pyrazine-2-carbonitrile] cannot be ordered by IC50: > 100 µM for the first, > 100 µM for the second.

`CN(C)c1nc2c(nc1C#N)C(=O)c1ccccc1-2` [Example 4, 3-dimethylamino-9-oxo-9H-indeno[1,2-b]pyrazine-2-carbonitrile] and `N#Cc1nc2c(nc1O)-c1ccccc1C2=O` [Example 6, 3-hydroxy-9-oxo-9H-indeno[1,2-b]pyrazine-2-carbonitrile] cannot be ordered by IC50: > 100 µM for the first, > 100 µM for the second.

`N#Cc1nc2c(nc1N)-c1ccccc1C2=O` [Example 7, 3-amino-9-oxo-9H-indeno[1,2-b]pyrazine-2-carbonitrile] and `N#Cc1nc2c(nc1Cl)-c1ccccc1C2=O` [Example 9, 3-chloro-9-oxo-9H-indeno[1,2-b]pyrazine-2-carbonitrile] cannot be ordered by IC50: > 100 µM for the first, > 100 µM for the second.

`N#Cc1nc2c(nc1N1CCC(F)(F)CC1)-c1ccccc1C2=O` [Example 8, 3-(4,4-difluoro-piperidin-1-yl)-9-oxo-9H-indeno[1,2-b]-pyrazine-2-carbonitrile] and `N#CNc1nc2c(nc1C#N)C(=O)c1ccccc1-2` [Example 21, 2-cyano-9-oxo-9H-indeno[1,2-b]pyrazin-3-yl-cyanamide] cannot be ordered by IC50: > 100 µM for the first, > 100 µM for the second.

Going from `N#Cc1nc2c(nc1C#N)C1(OCCO1)c1ccccc1-2` [Example 10] to `N#Cc1nc2c(nc1C#N)-c1ccccc1C2=NO` [Example 12, 9-[hydroxyimino]-9H-indeno[1,2-b]pyrazine-2,3-dicarbonitrile], the IC50 falls from > 100 µM to 21 µM. The second is the more potent here.

`CON=C1c2ccccc2-c2nc(C#N)c(C#N)nc21` [Example 13a, 9-(methoxyimino)-9H-indeno[1,2-b]pyrazine-2,3-dicarbonitrile] and `CCON=C1c2ccccc2-c2nc(C(N)=O)c(C#N)nc21` [Example 34b, 2-Cyano-9-ethoxyimino-9H-indeno[1,2-b]pyrazine-3-carboxylic acid amide] cannot be ordered by IC50: > 100 µM for the first, > 100 µM for the second.

`Cc1cccc2c1Cc1nc(C#N)c(C#N)nc1-2` [Example 16c, 8-Methyl-9H-indeno[1,2-b]pyrazine-2,3-dicarbonitrile] and `Cc1cccc2c1C(=O)c1nc(C#N)c(C#N)nc1-2` [Example 17c, 8-Methyl-9-oxo-9H-indeno[1,2-b]pyrazine-2,3-dicarbonitrile] cannot be ordered by IC50: > 100 µM for the first, > 100 µM for the second.

Compared with `COc1cc2c(cc1OC)-c1nc(C#N)c(C#N)nc1C2=O` [Example 17b, 6,7-Dimethoxy-9-oxo-9H-indeno[1,2-b]pyrazine-2,3-dicarbonitrile], `COc1ccc2c(c1OC)C(=O)c1nc(C#N)c(C#N)nc1-2` [Example 17d, 7,8-Dimethoxy-9-oxo-9H-indeno[1,2-b]pyrazine-2,3-dicarbonitrile] is lower in IC50: > 100 µM for the first, 87 µM for the second. The second is the more potent here.

Going from `Cc1ccc2c(c1)-c1nc(C#N)c(C#N)nc1C2=O` [Example 17e, 6-Methyl-9-oxo-9H-indeno[1,2-b]pyrazine-2,3-dicarbonitrile] to `CCc1ccc2c(c1)-c1nc(C#N)c(C#N)nc1C2=O` [Example 32, 6-ethyl-9-oxo-9H-indeno[1,2-b]pyrazine-2,3-dicarbonitrile], the IC50 rises from 20 µM to 69 µM (3.5-fold).

First: COc1ccc(OC)c2c1C(=O)c1nc(C#N)c(C#N)nc1-2 [Example 17f, 5,8-Dimethoxy-9-oxo-9H-indeno[1,2-b]pyrazine-2,3-dicarbonitrile]
Second: COc1ccc2c(c1)C(=O)c1nc(C#N)c(C#N)nc1-2 [Example 17i, 7-Methoxy-9-oxo-9H-indeno[1,2-b]pyrazine-2,3-dicarbonitrile]
The IC50 of the first is 1.6-fold higher: 52.6 µM for the first, 32 µM for the second.

First: N#Cc1nc2c(nc1C#N)-c1ccc(Cl)cc1C2=O [Example 17g, 7-Chloro-9-oxo-9H-indeno[1,2-b]pyrazine-2,3-dicarbonitrile]
Second: N#Cc1nc2c(nc1C#N)-c1ccc(F)cc1C2=O [Example 17h, 7-Fluoro-9-oxo-9H-indeno[1,2-b]pyrazine-2,3-dicarbonitrile]
The IC50 of the first is 4-fold lower: 1.5 µM for the first, 6 µM for the second.

Compared with `N#Cc1nc2c(nc1C#N)-c1ccc(O)cc1C2=O` [Example 17j, 7-Hydroxy-9-oxo-9H-indeno[1,2-b]pyrazine-2,3-dicarbonitrile], `N#Cc1nc2c(nc1O)-c1ccc(Cl)cc1C2=O` [Example 42, 7-chloro-3-hydroxy-9-oxo-9H-indeno[1,2-b]pyrazine-2-carbonitrile] is higher in IC50: 40 µM for the first, > 100 µM for the second.

`N#Cc1nc2sc3ccccc3c2nc1C#N` [Example 19, benzo[4,5]thieno[2,3-b]pyrazine-2,3-dicarbonitrile] and `N#Cc1nc2c(nc1C#N)-c1ccc(Cl)cc1C2=NNC(N)=O` [Example 43, 9-[(aminocarbonyl)hydrazono]-7-chloro-9H-indeno[1,2-b]pyrazine-2,3-dicarbonitrile] cannot be ordered by IC50: > 100 µM for the first, > 100 µM for the second.

`CCO/C(O)=C(\C#N)c1nc2c(nc1C#N)C(=O)c1ccccc1-2` [Example 22, 3-(1-cyano-2-ethoxy-2-hydroxy-vinyl)-9-oxo-9H-indeno[1,2-b]pyrazine-2-carbonitrile] and `CCSc1nc2c(nc1C#N)C(=O)c1ccccc1-2` [Example 23, 3-ethylsulfanyl-9-oxo-9H-indeno[1,2-b]pyrazine-2-carbonitrile] cannot be ordered by IC50: > 100 µM for the first, > 100 µM for the second.

First: N#Cc1nc2c(nc1CC(N)=O)-c1ccccc1C2=O [Example 26, 2-(2-cyano-9-oxo-9H-indeno[1,2-b]pyrazin-3-yl)-acetamide]
Second: C=CCON=C1c2ccccc2-c2nc(C(N)=O)c(C#N)nc21 [Example 34a, 9-Allyloxyimino-2-cyano-9H-indeno[1,2-b]pyrazine-3-carboxylic acid amide]
The IC50 of the first is higher: > 100 µM for the first, 3.5 µM for the second. The second is the more potent here.

`N#Cc1nc2c(nc1C#N)-c1ccc(Cl)cc1C2=NOCCOc1ccccc1` [Example 27b, 7-Chloro-9-(2-phenoxy-ethoxyimino)-9H-indeno[1,2-b]pyrazine-2,3-dicarbonitrile] and `COCCON=C1c2ccccc2-c2nc(C(N)=O)c(C#N)nc21` [Example 34c, 2-Cyano-9-(2-methoxy-ethoxyimino)-9H-indeno[1,2-b]pyrazine-3-carboxylic acid amide] cannot be ordered by IC50: > 100 µM for the first, > 100 µM for the second.
